Laboratory results reported in patent publication US20220304305A1, “HIGHLY EFFECTIVE FORMULATIONS ON THE BASIS OF 2-[(2,4-DICHLORPHENYL)-METHYL]-4,4'-DIMETHYL-3-ISOXAZOLIDINONES AND PREEMERGENCE HERBICIDES” (Bayer Aktiengesellschaft, priority 2019, published 2022).

Columns and labels:
[1] = tested on: gramineous weeds in winter cereals; experiment: Greenhouse trials, activity against gramineous weeds (summary in words); format: in vivo; settings: with both adjuvants from as low as 250 g/ha
Protocol: In the standard implementation of the test, seeds of various broad-leaved weed and weed grass biotypes (origins) were sown in an 8-13 cm diameter pot filled with natural soil of a standard field soil (loamy silt; non-sterile) and covered with a covering soil layer of about 1 cm. The pots were then cultivated in a greenhouse (light for 12-16 h, temperature 20-22° C. by day, 15-18° C. by night) until the time of application. The pots were treated on a laboratory track sprayer with spray liquors comprising the mixtures/compositions of the invention, mixtures of the prior art or the components applied individually. Application of the active ingredients or active ingredient combinations formulated as WG, WP, EC or otherwise was effected at the appropriate growth stages of the plants. The amount of water used for spray application was 100-600 l/ha. After the treatment, the plants were returned to the greenhouses.
About 3 weeks after the application, the soil action or/and foliar action was assessed visually according to a scale of 0-100% in comparison to an untreated comparative group: 0%=no noticeable effect compared to the untreated comparative group; 100%=full effect compared to the untreated comparative group. […]

[2] = list of substances and abbreviations used; cited from earlier work

Compound	improvement [1]	log P [2]
CC1(C)CON(Cc2ccc(Cl)cc2Cl)C1=O [DCPMI, 2-[(2,4-dichlorophenyl)methyl]-4,4′-dimethyl-3-isoxazolidinone]	significant improvement	abbreviated hereinafter to DCPMI), log P = 3.39
CC(C)N(C(=O)COc1nnc(C(F)(F)F)s1)c1ccc(F)cc1 [flufenacet, 4′-fluoro-N-isopropyl-2-(5-trifluoromethyl-1,3,4-thiadiazol-2-yloxy)acetanilide]		(Bayer AG), abbreviated hereinafter to FFA, log P = 3.2
